Experimental data as given in patent US20210300936A1, “PYRAZOLOTRIAZOLOPYRIMIDINE DERIVATIVES AS A2A RECEPTOR ANTAGONIST” (BEIGENE, LTD., priority 2018, published 2021).
pIC50, pKi: −log10 of the molar value. Where two headings read alike, the source gives them in different places.

Columns and labels:
[1] = biological target: T1, human adenosine receptor A1 (A1R) (Homo sapiens, UniProt P30542); experiment: Adenosine receptor binding assay, radioligand competitive binding, [3H]DPCPX; conditions: membrane homogenates from CHO cells transfected with A1R, 1 nM [3H]DPCPX
T1 construct: host or cells: CHO cells (membrane homogenates)
T1 sequence (P30542 1-326): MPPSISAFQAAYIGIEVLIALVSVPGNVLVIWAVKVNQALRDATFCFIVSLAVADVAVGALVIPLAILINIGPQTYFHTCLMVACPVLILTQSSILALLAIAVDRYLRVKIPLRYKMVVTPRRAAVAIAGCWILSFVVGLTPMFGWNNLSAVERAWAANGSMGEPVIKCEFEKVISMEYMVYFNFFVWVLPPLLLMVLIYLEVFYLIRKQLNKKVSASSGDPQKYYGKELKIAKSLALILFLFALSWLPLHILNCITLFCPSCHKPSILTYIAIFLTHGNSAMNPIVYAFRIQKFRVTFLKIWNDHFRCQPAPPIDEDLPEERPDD
Method: (§1) Binding affinity of test compounds to four human adenosine receptors, A1, A2A, A2B and A3 was determined in radioligand competitive binding assay (conducted by Cerep, France) using following protocols. For A1 receptor (A1R), membrane homogenates from CHO cells transfected with A1R were incubated for 60 min at 22° C. with 1 nM [3H]DPCPX in the absence or presence of the test compound in a buffer containing 50 mM Tris-HCl (pH 7.4), 5 mM MgCl2, 1 mM EDTA/Tris and 2 UI/mL ADA. For A2AR, membrane homogenates from HEK293 cells transfected with A2AR were incubated for 120 min at 22° C. with 6 nM [3H]CGS21680 in the absence or presence of the test compound in a buffer containing 50 mM Tris-HCl (pH 7.4), 10 mM MgCl2, and 2 UI/mL ADA. For A2B receptor (A2BR), membrane homogenates from HEK293 cells transfected with A2BR were incubated for 60 min at 22° C. with 5 nM [3H]CPX in the absence or presence of the test compound in a buffer containing 10 mM Hepes/Tris (pH 7), 1 mM MgCl2, and 1 mM EDTA. For A3 receptor (A3R), membrane homogenates from HEK293 cells transfected with A3R were incubated for 120 min at 22° C. with 0.15 nM [125I]AB-MECA in the absence or presence of the test compound in a buffer containing 50 mM Tris-HCl (pH 7.4), 5 mM MgCl2, 1 mM EDTA and 2 UI/mL ADA. Nonspecific binding was determined in the presence of unlabeled 1 μM DPCPX, 10 μM NECA, 100 μM NECA, and 1 μM IB-MECA in A1R, A2AR, A2BR, A3R binding assays, respectively. Following incubation, the samples are rapidly filtered and washed with ice-cold 50 mM Tris-HCl. Then filters are dried and counted for radioactivity in a scintillation counter (Topcount, Packard) using a scintillation cocktail (Microscint 0, Packard). Duplicate experiments were performed for each assay. The results are expressed as a percent inhibition of control radioligand specific binding.

[2] = biological target: human A2A receptor (A2AR) (Homo sapiens, UniProt P29274); experiment: Luciferase reporter assay (HEK293-A2AR-luc2p/CRE/Hygro cells, 3 nM CGS21680); type: cell-based; conditions: 3 nM CGS21680, 5 h incubation
human A2A receptor (A2AR), sequence (P29274 whole entry): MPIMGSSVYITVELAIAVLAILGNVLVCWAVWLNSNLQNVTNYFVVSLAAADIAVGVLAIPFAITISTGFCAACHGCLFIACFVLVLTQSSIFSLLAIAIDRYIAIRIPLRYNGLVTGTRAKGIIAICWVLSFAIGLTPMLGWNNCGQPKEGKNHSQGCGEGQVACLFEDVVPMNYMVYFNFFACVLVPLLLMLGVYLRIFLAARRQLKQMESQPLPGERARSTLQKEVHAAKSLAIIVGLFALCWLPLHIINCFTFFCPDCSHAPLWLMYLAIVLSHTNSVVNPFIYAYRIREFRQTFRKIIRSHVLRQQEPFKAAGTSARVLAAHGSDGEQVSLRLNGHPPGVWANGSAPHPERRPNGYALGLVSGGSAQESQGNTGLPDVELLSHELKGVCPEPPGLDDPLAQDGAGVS
Outline: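 Antagonist (0.1–10000 nM) and 3 nM CGS21680 were co-added for 5 h to stable HEK293-A2AR-luc2p/CRE cells, 18 h after seeding in 1% FBS medium containing adenosine deaminase. Luminescence was normalized to agonist alone (100%), and IC50 came from the dose–inhibition curve.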

[3] = biological target: T2, human adenosine receptor A2A (A2AR) (Homo sapiens, UniProt P29274); experiment: Adenosine receptor binding assay, radioligand competitive binding, [3H]CGS21680; conditions: membrane homogenates from HEK293 cells transfected with A2AR, 6 nM [3H]CGS21680
T2 construct: host or cells: HEK293 cells (membrane homogenates)
T2 sequence (P29274 whole entry): as above
Method: as §1

Mouse BBB assay = type: in vivo; conditions: oral 10 mg/kg
Method: Mice were acclimated for 1 week prior to use at 18-30 g body weight. Fasted mice were dosed orally at 10 mg/kg dose. At 1, 2 and 4 hours postdose, plasma samples from cardiac blood collected in tubes containing K2EDTA as the anticoagulant, and excised cerebral hemispheres were immediately frozen and stored at −80° C. until bioanalysis. Total concentrations of the compound were determined by LC-MS/MS. Brain homogenate concentrations were converted to brain concentrations for the calculations of brain-to-plasma ratios.

| Compound | pKi [1] | pIC50 [2] | pKi [3] | concentration at 1 h (Mouse BBB assay; brain, read-out: Brain) [ng/g] | concentration at 1 h (Mouse BBB assay; plasma, read-out: Plasma) [ng/mL] |
| --- | --- | --- | --- | --- | --- |
| CCCCC(C(=O)N1CCN(c2ccc(OCCOC)cc2)CC1)n1ncc2c1nc(N)n1nc(-c3ccco3)nc21 (single isomer, unassigned) [Compound A10b, 2-(5-amino-2-(furan-2-yl)-7H-pyrazolo[4,3-e][1,2,4]triazolo[1,5-c]pyrimidin-7-yl)-1-(4-(4-(2-methoxyethoxy)phenyl)piperazin-1-yl)hexan-1-one] | 6.59 | 6.84 | 8.25 | – | – |
| COCCOc1ccc(N2CCN(C(=O)C(c3ccccc3)n3ncc4c3nc(N)n3nc(-c5ccco5)nc43)CC2)cc1 (single isomer, unassigned) [Compound A13a] | 6.72 | 7.57 | 8.21 | – | – |
| CCCC(C(=O)N1CCN(c2ccc(OCCOC)cc2)CC1)n1ncc2c1nc(N)n1nc(-c3ccco3)nc21 (single isomer, unassigned) [Compound A5a, 2-(5-amino-2-(furan-2-yl)-7H-pyrazolo[4,3-e][1,2,4]triazolo[1,5-c]pyrimidin-7-yl)-1-(4-(4-(2-methoxyethoxy)phenyl)piperazin-1-yl)pentan-1-one] | 6.80 | 8.66 | 8.77 | 5.1 | 116 |
| COCCOc1ccc(N2CCN(CCn3ncc4c3nc(N)n3nc(-c5ccco5)nc43)CC2)cc1 [Preladenant, preladenant, reference compound] | 6.47 | – | – | – | – |
| CCCC(C(=O)N1CCN(c2ccc(OCCOC)cc2F)CC1)n1ncc2c1nc(N)n1nc(-c3ccco3)nc21 (single isomer, unassigned) [Compound A24b] | 5.92 | 7.10 | 8.07 | – | – |
| COCCOc1ccc(N2CCN(C(=O)[C@](C)(c3ccccc3)n3ncc4c3nc(N)n3nc(-c5ccco5)nc43)CC2)cc1 [Compound A63a, (S)-2-(5-amino-2-(furan-2-yl)-7H-pyrazolo[4,3-e][1,2,4]triazolo[1,5-c]pyrimidin-7-yl)-1-(4-(4-(2-methoxyethoxy)phenyl)piperazin-1-yl)-2-phenylpropan-1-one] | 5.95 | 8.10 | 8.51 | – | – |
| CCCC(C(=O)N1CCN(c2ccc(OCCOC)cc2)CC1)n1ncc2c1nc(N)n1nc(-c3ccco3)nc21 (single isomer, unassigned) [Compound A5b, 2-(5-amino-2-(furan-2-yl)-7H-pyrazolo[4,3-e][1,2,4]triazolo[1,5-c]pyrimidin-7-yl)-1-(4-(4-(2-methoxyethoxy)phenyl)piperazin-1-yl)pentan-1-one] | 6.51 | 7.30 | 8.22 | – | – |
| COCCOc1ccc(N2CCN(C(=O)[C@@](C)(c3ccccc3)n3ncc4c3nc(N)n3nc(-c5ccco5)nc43)CC2)cc1 [Compound A63b, (R)-2-(5-amino-2-(furan-2-yl)-7H-pyrazolo[4,3-e][1,2,4]triazolo[1,5-c]pyrimidin-7-yl)-1-(4-(4-(2-methoxyethoxy)phenyl)piperazin-1-yl)-2-phenylpropan-1-one] | 6.82 | 8.48 | 8.82 | – | – |
| COCCOc1ccc(N2CCN(C(=O)C(CC(C)C)n3ncc4c3nc(N)n3nc(-c5ccco5)nc43)CC2)cc1 (single isomer, unassigned) [Compound A16b] | 6.11 | 7.02 | 7.82 | – | – |

Continued, values first:

| pKi [1] | pIC50 [2] | pKi [3] | concentration at 1 h (Mouse BBB assay; brain, read-out: Brain) [ng/g] | concentration at 1 h (Mouse BBB assay; plasma, read-out: Plasma) [ng/mL] | Compound |
| --- | --- | --- | --- | --- | --- |
| 9.09 | 7.18 | 8.55 | – | – | COCCOc1ccc(N2CCN(C(=O)Cn3cc4c(nc(N)n5nc(-c6ccco6)nc45)n3)CC2)cc1 [Compound D2, 2-(5-amino-2-(furan-2-yl)-8H-pyrazolo[4,3-e][1,2,4]triazolo[1,5-c]pyrimidin-8-yl)-1-(4-(4-(2-methoxyethoxy)phenyl)piperazin-1-yl)ethan-1-one] |
| 7.74 | 9.22 | 8.77 | – | – | CC(C)CC(C(=O)N1CCN(c2ccc(F)cc2F)CC1)n1ncc2c1nc(N)n1nc(-c3ccco3)nc21 (single isomer, unassigned) [Compound A22b] |
| 6.92 | 8.57 | 8.64 | 20 | 471 | CCCCC(C(=O)N1CCN(c2ccc(OCCOC)cc2)CC1)n1ncc2c1nc(N)n1nc(-c3ccco3)nc21 (single isomer, unassigned) [Compound A10a, 2-(5-amino-2-(furan-2-yl)-7H-pyrazolo[4,3-e][1,2,4]triazolo[1,5-c]pyrimidin-7-yl)-1-(4-(4-(2-methoxyethoxy)phenyl)piperazin-1-yl)hexan-1-one] |
| 7.38 | 9.10 | 9.04 | 54 | 2440 | COCCOc1ccc(N2CCN(C(=O)C(c3ccccc3)n3ncc4c3nc(N)n3nc(-c5ccco5)nc43)CC2)cc1 (single isomer, unassigned) [Compound A13b] |
| 7.24 | 9.52 | 8.82 | – | – | COCCOc1ccc(N2CCN(C(=O)C(CC(C)C)n3ncc4c3nc(N)n3nc(-c5ccco5)nc43)CC2)cc1 (single isomer, unassigned) [Compound A16a] |
| 8.00 | 7.90 | 8.60 | – | – | COCCOc1ccc(N2CCN(C(=O)C(C)n3cc4c(nc(N)n5nc(-c6ccco6)nc45)n3)CC2)cc1 (single isomer, unassigned) [Compound C1b] |
| 7.28 | 7.57 | 8.74 | – | – | COCCOc1ccc(N2CCN(C(=O)Cn3ncc4c3nc(N)n3nc(-c5ccco5)nc43)CC2)cc1 [Compound D1, 2-(5-amino-2-(furan-2-yl)-7H-pyrazolo[4,3-e][1,2,4]triazolo[1,5-c]pyrimidin-7-yl)-1-(4-(4-(2-methoxyethoxy)phenyl)piperazin-1-yl)ethan-1-one] |
| 7.10 | 8.44 | 8.70 | – | – | CCCC(C(=O)N1CCN(c2ccc(OCCN(C)C)cc2)CC1)n1ncc2c1nc(N)n1nc(-c3ccco3)nc21 (single isomer, unassigned) [Compound A39b] |
| 6.82 | 9.30 | 9.05 | – | – | Nc1nc2c(cnn2C(C(=O)N2CCc3ccccc3C2)c2ccccc2)c2nc(-c3ccco3)nn12 (single isomer, unassigned) [Compound B3b] |
| > 9.30 | 7.24 | 8.21 | – | – | COCCOc1ccc(N2CCN(C(=O)C(C)n3cc4c(nc(N)n5nc(-c6ccco6)nc45)n3)CC2)cc1 (single isomer, unassigned) [Compound C1a] |
| 7.27 | 9.40 | 8.92 | – | – | COCCOc1ccc(N2CCN(C(=O)C(c3ccccc3F)n3ncc4c3nc(N)n3nc(-c5ccco5)nc43)CC2)cc1 (single isomer, unassigned) [Compound A43b] |
| 6.92 | 9.00 | 8.85 | – | – | CCCC(C(=O)N1CCN(c2ccc(OCCOC)cc2F)CC1)n1ncc2c1nc(N)n1nc(-c3ccco3)nc21 (single isomer, unassigned) [Compound A24a] |
